Experimental findings from article PMC8154124, “Design, Synthesis, Anticancer Evaluation, Enzymatic Assays, and a Molecular Modeling Study of Novel Pyrazole–Indole Hybrids” (ACS Omega, 2021) are described below.

Data set [1] has as its system human colorectal carcinoma (HCT-116). The data set can be described thus: MTT cytotoxicity assay, HCT-116. It is filed as cell-based. Conditions: 48 h, mean ± SD. Here is the method:
(§1) The cells of human liver carcinoma (HepG2), human breast adenocarcinoma (MCF-7), human colorectal carcinoma (HCT-116), and human lung carcinoma (A549) were purchased from the American Type Culture Collection (Rockville, MD). All cells were maintained in a Dulbecco’s modified Eagle’s medium (DMEM), which was supplemented with 10% of heat-inactivated fetal bovine serum (FBS) and 100 U/mL penicillin and streptomycin each. The cells were grown at 37 °C in a humidified atmosphere of 5% CO2.
(§2) The cytotoxicity activities on the human liver carcinoma (HepG2), human breast adenocarcinoma (MCF-7), human colorectal carcinoma (HCT-116), and human lung carcinoma (A549) cell lines were estimated employing the 3-(4,5-dimethyl-2-thiazolyl)-2,5-diphenyl-2H-tetrazolium bromide (MTT) assay, which was grounded on the reduction of the tetrazolium salt by mitochondrial dehydrogenases in viable cells.[51],[52] The cells were dispensed in a 96-well sterile microplate (3 × 10^4 cells/well), followed by their incubation at 37 °C with a series of different concentrations of 10 μL of each compound or doxorubicin (positive control, in DMSO) for 48 h in a serum-free medium prior to the MTT assay. Subsequently, the media were carefully removed, and 40 μL of MTT (2.5 mg/mL) was added to each well and then incubated for an additional 4 h. Purple formazan dye crystals were solubilized by the addition of 200 μL of DMSO. The absorbance was measured at 570 nm using a SpectraMax Paradigm Multi-Mode microplate reader. The relative cell viability was expressed as the mean percentage of viable cells relative to the untreated control cells. All experiments were conducted in triplicate and were repeated on three different days. All of the values were represented as mean ± standard deviation (SD). The IC50s were determined by the SPSS probit analysis software program (SPSS Inc., Chicago, IL).
(Formazan colour is commonly taken as a measure of viable cells.)

Data set [2] deals with human lung carcinoma (A549). The data set can be described thus: MTT cytotoxicity assay, A549. Format: cell-based. Conditions: 48 h, mean ± SD. Here is the method: as §1, §2
For data set [3], the system named is human liver carcinoma (HepG2). The data set can be described thus: MTT cytotoxicity assay, HepG2. Conditions: 48 h, mean ± SD. It is filed as cell-based. The protocol: as §1, §2
In data set [4] the test system is human breast adenocarcinoma (MCF-7). In words: MTT cytotoxicity assay, MCF-7. Format: cell-based. Conditions: MCF7, 48 h, mean ± SD. Here is the method: as §1, §2

The term IC50 denotes the concentration that gives 50% inhibition. Read a low IC50 as inhibition by little substance. Regarding `COc1ccc(Nc2n[nH]c(N=Cc3c[nH]c4ccccc34)c2C(=O)Nc2ccc(C)cc2)cc1` [7e, 5-((1H-Indol-3-yl)methyleneamino)-3-(4-methoxyphenylamino)-N-(4-methylphenyl)-1H-pyrazole-4-carboxamide], the half-maximal inhibitory concentration (IC50) in data set [1] was 37.4 ± 4.1 µM; in data set [2], 40.8 ± 4.3 µM; in data set [3] it was 25.8 ± 3.5 µM; in data set [4], 16.2 ± 2.3 µM.

Take `Cc1ccc(NC(=O)c2c(Nc3ccccc3)n[nH]c2N=C2C(=O)N(C)c3ccccc32)cc1` [5b, 5-(1-Methyl-2-oxoindolin-3-ylideneamino)-3-(phenylamino)-N-(4-methylphenyl)-1H-pyrazole-4-carboxamide]: the IC50 worked out at 28.1 ± 3.5 µM in data set [1], 46.7 ± 4.9 µM in data set [2], 37.1 ± 4.3 µM in data set [3] and 48 ± 5.1 µM in data set [4].

Consider `COc1cccc2c1C(=O)c1c(O)c3c(c(O)c1C2=O)C[C@@](O)(C(=O)CO)C[C@@H]3O[C@H]1C[C@H](N)[C@H](O)[C@H](C)O1` [doxorubicin, reference compound], for which the IC50 in data set [1] amounted to 40 ± 3.9 µM; in data set [2] it was 58.1 ± 4.1 µM; in data set [3] it was 24.7 ± 3.2 µM; in data set [4], 64.8 ± 4.1 µM.

On to `CCN1C(=O)C(=Nc2[nH]nc(Nc3ccc(OC)cc3)c2C(=O)Nc2ccc(C)cc2)c2ccccc21` [5j, 5-(1-Ethyl-2-oxoindolin-3-ylideneamino)-3-(4-methoxyphenylamino)-N-(4-methylphenyl)-1H-pyrazole-4-carboxamide], for which the half-maximal inhibitory concentration (IC50) was found to be 38.9 ± 4.1 µM in data set [1], 57 ± 4.9 µM in data set [2], 24.4 ± 2.9 µM in data set [3] and 63.7 ± 5.5 µM in data set [4].

Consider `COc1ccc(Nc2n[nH]c(N=Cc3c[nH]c4ccccc34)c2C(=O)Nc2ccccc2)cc1` [7d, 5-((1H-Indol-3-yl)methyleneamino)-3-(4-methoxyphenylamino)-N-phenyl-1H-pyrazole-4-carboxamide], for which the IC50 in data set [1] worked out at 25.3 ± 3.5 µM; in data set [2] it was 58.7 ± 4.2 µM; in data set [3], 27.2 ± 3.5 µM; in data set [4] it was 17.4 ± 2.3 µM.

On to `CCN1C(=O)C(=Nc2[nH]nc(Nc3ccccc3)c2C(=O)Nc2ccccc2)c2ccccc21` [5f, 5-(1-Ethyl-2-oxoindolin-3-ylideneamino)-N-phenyl-3-(phenylamino)-1H-pyrazole-4-carboxamide], for which the IC50 in data set [1] came out at 28.9 ± 3.9 µM; in data set [2], 52.9 ± 4.5 µM; in data set [3], 23.7 ± 3.1 µM; in data set [4] it was 42.1 ± 4.7 µM.

On to `CCN1C(=O)C(=Nc2[nH]nc(Nc3ccc(OC)cc3)c2C(=O)Nc2ccccc2)c2ccccc21` [5i, 5-(1-Ethyl-2-oxoindolin-3-ylideneamino)-3-(4-methoxyphenylamino)-N-phenyl-1H-pyrazole-4-carboxamide], for which the IC50 worked out at 53.9 ± 5.7 µM in data set [1], 47.8 ± 4.5 µM in data set [2], 26.7 ± 3.1 µM in data set [3] and 30.1 ± 4.2 µM in data set [4].

For `COc1ccc(Nc2n[nH]c(N=C3C(=O)N(C)c4ccccc43)c2C(=O)Nc2ccc(C)cc2)cc1` [5e, 3-(4-Methoxyphenylamino)-5-(1-methyl-2-oxoindolin-3-ylideneamino)-N-(4-methylphenyl)-1H-pyrazole-4-carboxamide], the IC50 in data set [1] worked out at 39.9 ± 4.2 µM; in data set [2], 77.7 ± 5.6 µM; in data set [3], 32 ± 3.9 µM; in data set [4], 61.8 ± 5.1 µM.

For the compound `COc1ccc(Nc2n[nH]c(N=C3C(=O)N(C)c4ccccc43)c2C(=O)Nc2ccccc2)cc1` [5d, 3-(4-Methoxyphenylamino)-5-(1-methyl-2-oxoindolin-3-ylideneamino)-N-phenyl-1H-pyrazole-4-carboxamide], the IC50 stood at 54.2 ± 5.5 µM in data set [1], 56 ± 4.1 µM in data set [2], 34.8 ± 3.9 µM in data set [3] and 46.4 ± 4.5 µM in data set [4].

As a reminder, the melting point is the temperature of the solid-liquid transition. Take `COc1ccc(Nc2n[nH]c(N=C3C(=O)N(C)c4ccccc43)c2C(N)=O)cc1` [5c, 3-(4-Methoxyphenylamino)-5-(1-methyl-2-oxoindolin-3-ylideneamino)-1H-pyrazole-4-carboxamide]: the melting point lay in the range of 265 to 267 °C. In data set [1], this compound showed an IC50 of 39.5 ± 4.5 µM. Further, in data set [2], half-maximal inhibition (IC50) required 40.7 ± 4.1 µM. For the same compound, the IC50 in data set [3] stood at 32.8 ± 3.8 µM. Moreover, half-maximal inhibition in data set [4] (IC50) required 22 ± 3.5 µM.

In the case of `CCN1C(=O)C(=Nc2[nH]nc(Nc3ccccc3)c2C(=O)Nc2ccc(C)cc2)c2ccccc21` [5g, 5-(1-Ethyl-2-oxoindolin-3-ylideneamino)-3-(phenylamino)-N-(4-methylphenyl)-1H-pyrazole-4-carboxamide], the IC50 was 35.7 ± 3.9 µM in data set [1], 46.8 ± 5.3 µM in data set [2], 27.8 ± 3.5 µM in data set [3] and 54 ± 4.9 µM in data set [4].

For `CCN1C(=O)C(=Nc2[nH]nc(Nc3ccc(OC)cc3)c2C(N)=O)c2ccccc21` [5h, 5-(1-Ethyl-2-oxoindolin-3-ylideneamino)-3-(4-methoxyphenylamino)-1H-pyrazole-4-carboxamide], the melting point fell in the range of 269 to 271 °C. For the same compound, the midpoint of inhibition in data set [1], the IC50, lay at 25.7 ± 4.3 µM. Further, it took 41.9 ± 3.9 µM to reach half-maximal inhibition in data set [2] (IC50). In addition, the IC50 in data set [3] was 28.2 ± 3.5 µM. This compound also gave an IC50 in data set [4] of 25.4 ± 3.9 µM.

`COc1ccc(Nc2n[nH]c(N=Cc3c[nH]c4ccccc34)c2C(N)=O)cc1` [7c, 5-((1H-Indol-3-yl)methyleneamino)-3-(4-methoxyphenylamino)-1H-pyrazole-4-carboxamide] displayed a melting point of 260 to 262 °C. The compound also came in with an IC50 in data set [1] of 31.9 ± 3.8 µM. This compound registered an IC50 in data set [2] of 43.4 ± 4.2 µM. In data set [3], this compound came in with an IC50 of 35.8 ± 3.9 µM. Half-maximal inhibition in data set [4] (IC50) required 22.2 ± 3.3 µM.

In the case of `CN1C(=O)C(=Nc2[nH]nc(Nc3ccccc3)c2C(=O)Nc2ccccc2)c2ccccc21` [5a, 5-(1-Methyl-2-oxoindolin-3-ylideneamino)-N-phenyl-3-(phenylamino)-1H-pyrazole-4-carboxamide], the IC50 in data set [1] came to 25.7 ± 3.5 µM; in data set [2], 42.8 ± 4.2 µM; in data set [3], 27.6 ± 3.1 µM; in data set [4], 28.3 ± 3.5 µM.
